# Biological target: T1, LPA1 (Homo sapiens, UniProt Q92633)
# T1 construct: ProLink (PK) beta-galactosidase enzyme-fragment tag; host or cells: CHO-K1
# Assay: LPA1 calcium flux assay (LPA1 functional antagonist assay)
# Assay type: cell-based
# Settings: PathHunter CHO-K1 EDG2 β-Arrestin cell line; calcium indicator dye; stimulated with EC80 concentration of LPA; FLIPR Tetra
# Procedure, shortened: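 The LPA1 antagonist readout was intracellular calcium flux, and IC50 values were calculated from it. Plates stood 30 min at RT after compound addition. Cells, grown overnight, had first taken up calcium dye over 45 min at 37 °C.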
# T1 sequence (Q92633 whole entry, the tested form may be a part): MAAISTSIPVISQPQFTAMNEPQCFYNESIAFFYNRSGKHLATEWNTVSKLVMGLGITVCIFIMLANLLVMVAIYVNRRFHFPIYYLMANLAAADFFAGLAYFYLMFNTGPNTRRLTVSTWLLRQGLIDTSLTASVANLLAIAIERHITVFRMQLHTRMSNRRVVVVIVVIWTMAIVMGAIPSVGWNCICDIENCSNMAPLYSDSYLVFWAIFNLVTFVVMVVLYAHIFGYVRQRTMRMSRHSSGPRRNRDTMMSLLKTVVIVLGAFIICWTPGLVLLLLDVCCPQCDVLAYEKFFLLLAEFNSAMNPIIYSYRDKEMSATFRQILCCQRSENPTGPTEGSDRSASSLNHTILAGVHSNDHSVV
row,IC50 [nM],Structure (SMILES)
1,100 to 500,"CCOc1ccc(=O)n(Cc2c(-c3ccc(N4C[C@@H](CC(=O)O)CC(F)(F)C4)c(CC)n3)nnn2C)c1 [Example 26, (S)-2-(1-(6-(5-((5-ethoxy-2-oxopyridin-1(2H)-yl)methyl)-1-methyl-1H-1,2,3-triazol-4-yl)-2-ethylpyridin-3-yl)-5,5-difluoropiperidin-3-yl)acetic acid]"
2,500 to 5000,"CCc1nc(-c2nnn(C)c2Cn2cc(N3CCC3)ccc2=O)ccc1N1C[C@@H](CC(=O)O)CC(F)(F)C1 [Example 27, (S)-2-(1-(6-(5-((5-(azetidin-1-yl)-2-oxopyridin-1(2H)-yl)methyl)-1-methyl-1H-1,2,3-triazol-4-yl)-2-ethylpyridin-3-yl)-5,5-difluoropiperidin-3-yl)acetic acid]"
3,500 to 5000,"CCc1nc(-c2nnn(C)c2Cn2cc(-n3cccn3)ccc2=O)ccc1N1C[C@@H](CC(=O)O)CC(F)(F)C1 [Example 28, (S)-2-(1-(2-ethyl-6-(1-methyl-5-((2-oxo-5-(1H-pyrazol-1-yl)pyridin-1 (2H)-y)methyl)-1H-1,2,3-triazol-4-yl)pyridin-3-yl)-5,5-difluoropiperidin-3-yl)acetic acid]"
4,100 to 500,"CCCc1cn(Cc2c(-c3ccc(N4C[C@@H](CC(=O)O)CC(F)(F)C4)c(CC)n3)nnn2C)c(=O)cn1 [Example 29, (S)-2-(1-(2-ethyl-6-(1-methyl-5-((2-oxo-5-propylpyrazin-1(2H)-yl)methyl)-1H-1,2,3-triazol-4-yl)pyridin-3-yl)-5,5-difluoropiperidin-3-yl)acetic acid]"
5,> 5000,CCCc1cc(=O)n(Cc2c(-c3ccc(N4C[C@@H](CC(=O)O)CC(F)(F)C4)c(CC)n3)nnn2C)cn1 [Example 31]
6,500 to 5000,"CCCc1ccnn(Cc2c(-c3ccc(N4C[C@@H](CC(=O)O)CC(F)(F)C4)c(C)n3)nnn2C)c1=O [Example 32, (S)-2-(5,5-difluoro-1-(2-methyl-6-(1-methyl-5-((6-0xo-5-propylpyridazin-1(6H)-yl)methyl)-1H-1,2,3-triazol-4-yl)pyridin-3-yl)piperidin-3-yl)acetic acid]"
7,> 5000,"CCCc1cnn(Cc2c(-c3ccc(N4C[C@@H](CC(=O)O)CC(F)(F)C4)c(C)n3)nnn2C)c(=O)c1 [Example 33, (S)-2-(5,5-difluoro-1-(2-methyl-6-(1-methyl-5-((6-oxo-4-propylpyridazin-1(6H)-yl)methyl)-1H-1,2,3-triazol-4-yl)pyridin-3-yl)piperidin-3-yl)acetic acid]"
8,500 to 5000,"CCCc1ccc(=O)n(Cc2c(-c3ccc(N4C[C@@H](CC(=O)O)CC(F)(F)C4)c(C)n3)nnn2C)n1 [Example 34, (S)-2-(5,5-difluoro-1-(2-methyl-6-(1-methyl-5-((6-oxo-3-propylpyridazin-1(6H)-yl)methyl)-1H-1,2,3-triazol-4-yl)pyridin-3-yl)piperidin-3-yl)acetic acid]"
9,100 to 500,"CCc1nc(-c2nnn(C)c2Cn2nc(CC3CC3)ccc2=O)ccc1N1C[C@@H](CC(=O)O)CC(F)(F)C1 [Example 35, (S)-2-(1-(6-(5-((3-(cyclopropyImethyl)-6-oxopyridazin-1(6H)-yl)methyl)-1-methyl-1H-1,2,3-triazol-4-yl)-2-ethylpyridin-3-yl)-5,5-difluoropiperidin-3-yl)acetic acid]"
10,100 to 500,"CCc1nc(-c2nnn(C)c2Cn2nc(C3CC3)ccc2=O)ccc1N1C[C@@H](CC(=O)O)CC(F)(F)C1 [Example 36, (S)2-(1-(6-(5-((3-cyclopropyl-6-oxopyridazin-1(6H)-yl)methyl)-1-methyl-1H-1,2,3-triazol-4-yl)-2-ethylpyridin-3-yl)-5,5-difluoropiperidin-3-yl)acetic acid]"
11,> 5000,"CCCc1ccc(=O)n(Cc2c(-c3ncc(N4C[C@@H](CC(=O)O)CC(F)(F)C4)c(CC)n3)cnn2C)c1 [Example 37, (S)-2-(1-(4-ethyl-2-(1-methyl-5-((2-oxo-5-propylpyridin-1(2H)-yl)methyl)-1H-pyrazol-4-yl)pyrimidin-5-yl)-5,5-difluoropiperidin-3-yl)acetic acid]"
12,> 5000,"CCCc1cnc(=O)n(Cc2c(-c3ncc(N4C[C@@H](CC(=O)O)CC(F)(F)C4)c(CC)n3)cnn2C)c1 [Example 38, (S)-2-(1-(4-ethyl-2-(1-methyl-5-((2-oxo-5-propylpyrimidin-1(2H)-yl)methyl)-1H-pyrazol-4-yl)pyrimidin-5-yl)-5,5-difluoropiperidin-3-yl)acetic acid]"
13,500 to 5000,"CCc1nc(-c2cnn(C)c2Cn2cc(C3CC3)ccc2=O)ncc1N1C[C@@H](CC(=O)O)CC(F)(F)C1 [Example 39, (S)-2-(1-(2-(5-((5-cyclopropyl-2-oxopyridin-1(2H)-yl)methyl)-1-methyl-1H-pyrazol-4-yl)-4-ethylpyrimidin-5-yl)-5,5-difluoropiperidin-3-yl)acetic acid]"
14,500 to 5000,"CCc1nc(-c2cnn(C)c2Cn2cc(CC(C)C)ccc2=O)ncc1N1C[C@@H](CC(=O)O)CC(F)(F)C1 [Example 40, (S)-2-(1-(4-ethyl-2-(5-((5-isobutyl-2-oxopyridin-1(2H)-yl)methyl)-1-methyl-1H-pyrazol-4-yl)pyrimidin-5-yl)-5,5-difluoropiperidin-3-yl)acetic acid]"
15,100 to 500,"CCCc1ccc(=O)n(Cc2c(-c3ccc(N4C[C@@H](CC(=O)O)CC(F)(F)C4)c(CC)n3)cnn2C)c1 [Example 41, (S)-2-(1-(2-ethyl-6-(1-methyl-5-((2-oxo-5-propylpyridin-1(2H)-yl)methyl)-1H-pyrazol-4-yl)pyridin-3-yl)-5,5-difluoropiperidin-3-yl)acetic acid]"
16,500 to 5000,"CCCc1ccc(=O)n(Cc2c(-c3ccc(N4CCC[C@H](CC(=O)O)C4)c(CC)n3)cnn2C)c1 [Example 42, (R)-2-(1-(2-ethyl-6-(1-methyl-5-((2-oxo-5-propylpyridin-1(2H)-yl)methyl)-1H-pyrazol-4-yl)pyridin-3-yl)piperidin-3-yl)acetic acid]"
17,> 5000,"CCCc1ccnn(CCc2c(-c3ccc(N4CC(CC(=O)O)CC(F)(F)C4)c(C)n3)nnn2C)c1=O (stereo not drawn) [Example 44, 2-[5,5-difluoro-1-(2-methyl-6-{1-methyl-5-[2-(6-oxo-5-propyl-1,6-dihydropyridazin-1-yl)ethyl]-1H-1,2,3-triazol-4-yl}pyridin-3-yl)piperidin-3-yl]acetic acid]"
18,> 5000,"CCCc1ccc(=O)n(Cc2c(-c3cc(F)c(N4CCCC(CC(=O)O)C4)c(C)n3)nnn2C)c1 (stereo not drawn) [Example 47, 2-(1-(4-fluoro-2-methyl-6-(1-methyl-5-((2-oxo-5-propylpyridin-1(2H)-yl)methyl)-1H-1,2,3-triazol-4-yl)pyridin-3-yl)piperidin-3-yl)acetic acid]"
19,> 5000,"CCCc1ccc(=O)n(Cc2c(-c3cc(F)c(N4CCCC(CC(=O)O)C4)c(CC)n3)nnn2C)c1 (stereo not drawn) [Example 48, 2-(1-(2-ethyl-4-fluoro-6-(1-methyl-5-((2-oxo-5-propylpyridin-1(2H)-yl)methyl)-1H-1,2,3-triazol-4-yl)pyridin-3-yl)piperidin-3-yl)acetic acid]"
20,> 5000,"CCCc1ccc(=O)n(Cc2c(-c3ccc(N4C[C@@H](CC(=O)O)CC(F)(F)C4)c(C#N)n3)nnn2C)c1 [Example 49, (S)-2-(1-(2-cyano-6-(1-methyl-5-((2-oxo-5-propylpyridin-1(2H)-yl)methyl)-1H-1,2,3-triazol-4-yl)pyridin-3-yl)-5,5-difluoropiperidin-3-yl)acetic acid]"
21,> 5000,"CCCc1ccc(=O)n(Cc2c(-c3ccc(N4CCC[C@H](CC(=O)O)C4)c(C#N)n3)nnn2C)c1 [Example 50, (R)-2-(1-(2-cyano-6-(1-methyl-5-((2-oxo-5-propylpyridin-1(2H)-yl)methyl)-1H-1,2,3-triazol-4-yl)pyridin-3-yl)piperidin-3-yl)acetic acid]"
22,> 5000,"CCCc1ccc(=O)n(Cc2c(-c3ccc(N4CCC[C@@H](CC(=O)O)C4)c(C#N)n3)nnn2C)c1 [Example 51, (S)-2-(1-(2-cyano-6-(1-methyl-5-((2-oxo-5-propylpyridin-1(2H)-yl)methyl)-1H-1,2,3-triazol-4-yl)pyridin-3-yl)piperidin-3-yl)acetic acid]"
23,> 5000,"CCCc1ccc(=O)n(Cc2c(-c3cnc(N4CCCC(CC(=O)O)C4)cn3)nnn2C)c1 (stereo not drawn) [Example 57, 2-(1-(5-(1-methyl-5-((2-oxo-5-propylpyridin-1(2H)-yl)methyl)-1H-1,2,3-triazol-4-yl)pyrazin-2-yl)piperidin-3-yl)acetic acid]"
24,< 100,"CCCc1ccc(=O)n(Cc2c(-c3ccc(N4CCC[C@H](CC(=O)O)C4)c(C(F)(F)F)n3)nnn2C)c1 [Example 58, 2-[(3R)-1-(6-{1-methyl-5-[(2-oxo-5-propyl-1,2-dihydropyridin-1-yl)methyl]-1H-1,2,3-triazol-4-yl}-2-(trifluoromethyl)pyridin-3-yl)piperidin-3-yl]acetic acid]"
25,< 100,"Cn1nnc(-c2ccc(N3CCC[C@H](CC(=O)O)C3)c(C(F)(F)F)n2)c1Cn1cc(C2CC2)ccc1=O [Example 59, (R)-2-(1-(6-(5-((5-cyclopropyl-2-oxopyridin-1(2H)-yl)methyl)-1-methyl-1H-1,2,3-triazol-4-yl)-2-(trifluoromethyl)pyridin-3-yl)piperidin-3-yl)acetic acid]"
26,< 100,"CCCc1ccc(=O)n(Cc2c(-c3ccc(N4CCC[C@H](CC(=O)O)C4)c(C(F)F)n3)nnn2C)c1 [Example 60, (R)-2-(1-(2-(difluoromethyl)-6-(1-methyl-5-((2-oxo-5-propylpyridin-1(2H)-yl)methyl)-1H-1,2,3-triazol-4-yl)pyridin-3-yl)piperidin-3-yl)acetic acid]"
27,500 to 5000,"CCc1nc(-c2nnn(C)c2CN2C[C@H](CC3CC3)N(C)C2=O)ccc1N1C[C@@H](CC(=O)O)CC(F)(F)C1 [Example 61, 2-((S)-1-(6-(5-(((S)-4-(cyclopropylmethyl)-3-methyl-2-oxoimidazolidin-1-yl)methyl)-1-methyl-1H-1,2,3-triazol-4-yl)-2-ethylpyridin-3-yl)-5,5-difluoropiperidin-3-yl)acetic acid]"

# — patent US12780800B1, “Triazole-pyridinyl substituted azacyclohexyl acetic acid compounds as LPA receptor antagonists” (Viva Star Biosciences Limited, priority 2021, dated 2022)
